The record followed here is PMC6556873, “Rapid Covalent-Probe Discovery by Electrophile-Fragment Screening” (Journal of the American Chemical Society, 2019).

Molecules are shown by their SMILES. Like-named read-outs stand apart in the source and are kept apart here.

The nature of data set [1]: in vitro. Also noted: species or system HB2, HEK293. The following applies: human, ccd841 cells.
Data set [2] is described as follows: in vitro. Particulars: human, hek293 cells. Further details: species or system HB2, CCD841.
Data set [3] deals with T1, NUDT7 (Homo sapiens, UniProt P0C024).
T1 construct: residues 14-235, E. coli, pNIC28-Bsa4, N-terminal His6 tag removed by TEV, construct 26672 Da
Also noted: Intact protein LC/MS covalent labelling, fragments in pools of five, 200 uM each, 4 °C. The following applies: 24 h, 4 °C, pool of five; 200 µM; covalent.

The target of data set [4] is T2, OTUB2 (OTUB2A) (Homo sapiens, UniProt Q96DC9).
T2 construct: full length residues 1-234, E. coli BL21(DE3)-R3, His tag removed by TEV, construct 27312 Da
T2 sequence (Q96DC9 1-234): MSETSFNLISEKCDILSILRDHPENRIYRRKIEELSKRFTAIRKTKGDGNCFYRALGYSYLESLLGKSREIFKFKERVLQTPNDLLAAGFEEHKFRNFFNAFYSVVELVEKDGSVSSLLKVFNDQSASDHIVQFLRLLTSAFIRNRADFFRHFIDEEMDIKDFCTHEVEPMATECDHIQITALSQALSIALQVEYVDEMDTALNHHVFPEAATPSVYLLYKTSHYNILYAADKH
Also noted: Intact protein LC/MS covalent labelling, fragments in pools of five, 200 uM each, 4 °C. Particulars: 24 h, 4 °C, pool of five; 200 µM; covalent.

The target of data set [5] is T3, BSA (Bos taurus, UniProt P02769).
T3 construct: gene ALB
Also noted: Intact protein LC/MS covalent labelling, fragments in pools of five, 200 uM each, 4 °C. The following applies: 24 h, 4 °C, pool of five; 200 µM; covalent.

Data set [6] concerns the target T4, PCAF (Homo sapiens, UniProt Q92831).
T4 construct: gene KAT2B
Also noted: Intact protein LC/MS covalent labelling, fragments in pools of five, 200 uM each, 4 °C. Particulars: 24 h, 4 °C, pool of five; 200 µM; covalent.

The nature of data set [7]: in vitro. Also noted: species or system CCD841, HEK293. Particulars: human, hb2 cells, read-out: HB-2 Cells Viability (%).

T1 sequence (P0C024 14-235): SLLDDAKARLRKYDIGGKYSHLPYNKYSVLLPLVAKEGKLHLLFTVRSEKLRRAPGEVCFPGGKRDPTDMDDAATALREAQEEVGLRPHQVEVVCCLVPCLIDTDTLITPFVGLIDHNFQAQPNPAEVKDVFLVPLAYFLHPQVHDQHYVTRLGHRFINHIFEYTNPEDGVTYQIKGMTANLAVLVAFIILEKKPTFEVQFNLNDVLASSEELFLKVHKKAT
T4 sequence (Q92831 whole entry): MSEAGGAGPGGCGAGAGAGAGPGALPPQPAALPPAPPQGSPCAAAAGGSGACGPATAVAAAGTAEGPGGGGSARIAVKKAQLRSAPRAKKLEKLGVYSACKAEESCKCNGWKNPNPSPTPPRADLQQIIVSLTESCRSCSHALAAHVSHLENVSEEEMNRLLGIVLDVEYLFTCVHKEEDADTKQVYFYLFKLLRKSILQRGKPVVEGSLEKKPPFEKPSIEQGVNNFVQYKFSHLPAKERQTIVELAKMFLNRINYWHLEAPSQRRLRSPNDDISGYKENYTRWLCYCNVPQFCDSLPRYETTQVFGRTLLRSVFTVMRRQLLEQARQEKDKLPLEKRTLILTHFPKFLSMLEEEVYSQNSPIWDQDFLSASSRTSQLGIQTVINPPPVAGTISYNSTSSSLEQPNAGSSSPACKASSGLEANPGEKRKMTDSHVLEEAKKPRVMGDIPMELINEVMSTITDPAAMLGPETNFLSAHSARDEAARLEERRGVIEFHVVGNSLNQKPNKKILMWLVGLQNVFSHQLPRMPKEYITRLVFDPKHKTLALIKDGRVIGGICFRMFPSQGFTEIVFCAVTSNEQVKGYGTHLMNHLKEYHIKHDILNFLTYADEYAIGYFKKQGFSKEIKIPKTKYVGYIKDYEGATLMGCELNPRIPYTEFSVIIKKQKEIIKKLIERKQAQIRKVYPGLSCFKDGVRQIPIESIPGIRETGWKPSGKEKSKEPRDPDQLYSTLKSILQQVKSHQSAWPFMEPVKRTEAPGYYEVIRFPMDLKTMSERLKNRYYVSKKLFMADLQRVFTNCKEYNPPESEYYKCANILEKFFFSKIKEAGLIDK
T3 sequence (P02769 whole entry): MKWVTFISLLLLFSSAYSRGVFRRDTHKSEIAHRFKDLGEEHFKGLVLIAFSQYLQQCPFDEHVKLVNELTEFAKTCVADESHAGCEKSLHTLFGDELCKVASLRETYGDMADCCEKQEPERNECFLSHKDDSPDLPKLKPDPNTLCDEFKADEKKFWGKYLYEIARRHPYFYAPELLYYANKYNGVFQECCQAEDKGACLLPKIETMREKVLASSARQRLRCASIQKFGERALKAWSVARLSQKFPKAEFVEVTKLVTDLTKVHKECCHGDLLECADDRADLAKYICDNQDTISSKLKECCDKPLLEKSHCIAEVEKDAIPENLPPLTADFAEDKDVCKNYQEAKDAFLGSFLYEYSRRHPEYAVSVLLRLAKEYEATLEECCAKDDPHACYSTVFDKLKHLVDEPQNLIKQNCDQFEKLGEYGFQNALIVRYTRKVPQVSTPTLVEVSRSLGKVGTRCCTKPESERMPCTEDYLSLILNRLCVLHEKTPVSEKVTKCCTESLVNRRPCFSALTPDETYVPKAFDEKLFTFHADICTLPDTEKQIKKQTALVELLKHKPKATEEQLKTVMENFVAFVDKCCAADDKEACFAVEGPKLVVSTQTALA

Broadly, the viability is a read-out of living cells in per cent, often relative to untreated cells. Regarding `O=C(CCl)NNC(=O)C1COc2ccccc2O1` (centres unmarked) [PCM-0102384], the viability at 48 h, 10 µM in data set [1] came to 70.3%; in data set [2], 90.7%; in data set [7], 86.6%. The same compound gave an NUDT7 in data set [3] of 0. The OTUB2 in data set [4] is listed as 0.27. The compound also came in with a BSA in data set [5] of 0. In data set [6], the PCAF was found to be 0.
`O=C(CCl)NC(=O)c1ccc(Cl)cc1` [PCM-0102711]: the viability at 48 h, 10 µM in data set [1] was found to be 96.8%; in data set [2], 103%; in data set [7], 98.9%. The same compound displayed an NUDT7 in data set [3] of 0. This compound also registered an OTUB2 in data set [4] of 0. Besides, the BSA in data set [5] was 0. The compound also displayed a PCAF in data set [6] of 0.
Regarding `C=CC(=O)N1CC(NC(=O)C(F)(F)F)CCC1C(F)(F)F` (centres unmarked) [PCM-0102603], the viability at 48 h, 10 µM in data set [1] is 104%; in data set [2], 110%; in data set [7] it was 97.9%. Besides, in data set [3], the NUDT7 was 0. This compound also had an OTUB2 in data set [4] of 0. The BSA in data set [5] is recorded as 0. The compound also came in with a PCAF in data set [6] of 0.
In the case of `CC1CCN(C(=O)CCl)c2ccccc2S1` (centres unmarked) [PCM-0102216], the viability at 48 h, 10 µM in data set [1] amounted to 52.4%; in data set [2], 42.4%; in data set [7], 77.3%. The same compound displayed an NUDT7 in data set [3] of 0.32. The compound also came in with an OTUB2 in data set [4] of 0. The compound also came in with a BSA in data set [5] of 0. Further, in data set [6], the PCAF stood at 0.
As to `O=C(CCl)N1CCN(S(=O)(=O)c2ccc(F)c(Cl)c2)CC1` [PCM-0102343], the figures for the viability at 48 h, 10 µM in data set [1], in data set [2] and in data set [7] were 14.3%, 2.6% and 1.4%, respectively. Besides, in data set [3], the NUDT7 is given as 0.12. The OTUB2 in data set [4] was 0. The same compound displayed a BSA in data set [5] of 0. For the same compound, the PCAF in data set [6] was 0.
For the compound `CN(Cc1cccc(C(F)(F)F)c1)C(=O)CCl` [PCM-0102987], the viability at 48 h, 10 µM in data set [1] stood at 45.2%; in data set [2], 6.7%; in data set [7], 5.3%. In addition, the NUDT7 in data set [3] worked out at 0.09. In data set [4], this compound gave an OTUB2 of 0. In data set [5], this compound returned a BSA of 0. The PCAF in data set [6] is listed as 0.
In the case of `C=CC(=O)Nc1ccc([N+](=O)[O-])cc1` [PCM-0102740], the results for the viability at 48 h, 10 µM in data set [1], in data set [2] and in data set [7] were 71.6%, 87.6% and 77.4%, respectively. Also, the NUDT7 in data set [3] was found to be 0.05. In data set [4], this compound came in with an OTUB2 of 0. In data set [5], this compound returned a BSA of 0. The compound further gave a PCAF in data set [6] of 0.
As for `C=CC(=O)NC(=O)NC12CC3CC(CC(C3)C1)C2` [PCM-0102106], the figures for the viability at 48 h, 10 µM in data set [1], in data set [2] and in data set [7] were 80.9%, 42% and 26.6%, respectively. In data set [3], this compound returned an NUDT7 of 0.79. The compound also gave an OTUB2 in data set [4] of 0. This compound also registered a BSA in data set [5] of 0. The compound also gave a PCAF in data set [6] of 0.
Turning to `N#CSc1ccc(NC(=O)CCl)c(F)c1` [PCM-0102548], the viability at 48 h, 10 µM was found to be 26.5% in data set [1], 55.2% in data set [2] and 19.2% in data set [7]. For the same compound, in data set [3], the NUDT7 amounted to 0. Moreover, in data set [4], the OTUB2 worked out at 0.09. Moreover, the BSA in data set [5] is 0. The compound further registered a PCAF in data set [6] of 0.
With `CCc1nc(NC(=O)CCl)sc1C` [PCM-0102231], the viability at 48 h, 10 µM in data set [1] came out at 78.9%; in data set [2], 56.5%; in data set [7], 61.1%. In addition, in data set [3], the NUDT7 worked out at 0.33. The compound further had an OTUB2 in data set [4] of 0. The compound also had a BSA in data set [5] of 0. The compound also yielded a PCAF in data set [6] of 0.
Regarding `O=C(CCl)N1CCN(c2ccc(Cl)cc2[N+](=O)[O-])CC1` [PCM-0102125], the viability at 48 h, 10 µM was found to be 8.1% in data set [1], 1.4% in data set [2] and 2.3% in data set [7]. In data set [3], this compound displayed an NUDT7 of 0.29. In data set [4], the OTUB2 is listed as 0. In addition, the BSA in data set [5] amounted to 0. The compound further came in with a PCAF in data set [6] of 0.
